Data taken from patent US9561193B2, “Oral and skin care compositions based on a 3,3-Dialkyl-1,1-biphenyl-2,2-diol or a 3,3-Dialkenyl-1,1-biphenyl-2,2-diol” (Colgate-Palmolive Company, priority 2011, dated 2017).
≈ marks a conversion by molar mass, not a printed value.

Columns and labels:
Type in all cases: cell-based
[1] = test system: Escherichia coli (E. coli); test: Short Interval Kill Test (SIKT); conditions: 1 minute exposure
Protocol: (§1) Compound (3) was evaluated for its antibacterial efficacy against representative skin bacteria such as Staphylococcus aureus (S. aureus), Corynebacterium minutissimum (C. minutissimum), and Escherichia coli (E. coli). Minimum Inhibitory Concentration (MIC), and a Short Interval Kill Test (SIKT) were performed, and the results are described in Table 6 and Table 7 (below).
(§2) The SIKT test determines the kill effect of a test compound at a predetermined exposure time. The SIKT values presented below in Table 7, were obtained generally according to the following method: An aliquot of Compound (3) in a volume of 1.2 mL is transferred into a sterile test tube, to which 0.2 mL of a freshly prepared bacterial suspension (OD adjusted to 0.1 at 620 nm) is added and gently mixed. The reaction is neutralized at the 1 minute point by adding a neutralizing broth. The resulting mixture is then further diluted (serial ten-fold dilutions) with Letheen broth and an aliquot of each dilution is plated on MCA (Microbial Count Agar) plates for viable bacterial count.

[2] = test system: Staphylococcus aureus (S. aureus); test: Short Interval Kill Test (SIKT); conditions: 1 minute exposure
Protocol: as §1, §2

Prostaglandin E2 (PGE2) = test: PGE2 EIA anti-inflammatory assay in IL-1β or HKPG stimulated cells; conditions: PGE2 level; human embryo palatal mesenchyme cells; IL-1β (10 ng/ml) or heat-killed P. gingivalis (HKPG); overnight incubation
Protocol: Prostaglandin E2 (PGE2) is a key mediator of periodontal inflammation and its expression is a well-established as a biomarker associated with gingival inflammation. […] The data of Table 9 were obtained generally according to the following method: A 100 μL aliquot of DMEM media (Dulbecco's Modified Eagle Medium) (Invitrogen, Carlsbad, Calif.) containing either IL-1β (10 ng/ml) (Roche Applied Science, Indianapolis Ind.) or 10^8 heat-killed Prophynomonas gingivalis (HKPG) into each well of a sterile 96-well plate (“mirror plate”). An additional 98 μl aliquot of DMEM media containing either IL-1β or HKPG was added to the first well in each row. […]
Each well of a second plate containing growing cells (human embryo palatal mesenchyme cells, catalog no. CRL-1486; ATCC, Manassas, Va.) is washed twice with PBS, after which any remaining media is aspirated from the wells. […] An additional 30 μL aliquot of media is added to each well to adjust the final volume to 100 μL and the level of PGE2 determined using a detection kit generally according to the manufacturer's instructions (PEG2-EIA Kit, catalogue no. 901-001; Assay Designs Inc, Ann Arbor Mich.) and software (GraphPad Prism, GraphPad Software, Inc., San Diego Calif.).

[3] = test system: Escherichia coli (E. coli); test: Minimum Inhibitory Concentration (MIC), skin bacteria; conditions: 18-24 hours of incubation
Protocol: (§3) Compound (3) was evaluated for its antibacterial efficacy against representative skin bacteria such as Staphylococcus aureus (S. aureus), Corynebacterium minutissimum (C. minutissimum), and Escherichia coli (E. coli). Minimum Inhibitory Concentration (MIC), and a Short Interval Kill Test (SIKT) were performed, and the results are described in Table 6 and Table 7 (below). MIC values against three common skin bacteria were determined for Compound (3) using the following method: A series of two-fold dilutions of Compound (3) was prepared in a 96 well plate and a constant amount of bacteria was added to each well. After 18-24 hours of incubation, bacterial growth was measured with a Spectrophotometric Micro-plate Reader and the MIC values were determined.

[4] = test system: Staphylococcus aureus (S. aureus); test: as above; conditions: 18-24 hours of incubation
Protocol: as §3

[5] = test system: Corynebacterium minutissimum (C. minutissimum); test: as above; conditions: 18-24 hours of incubation
Protocol: as §3

S. sanguis = test: Minimum Inhibitory Concentration test, oral bacteria; conditions: trypticase soy broth, 18-24 hours of incubation
Protocol: (§4) Table 1 (below) describes the antibacterial efficacy (Minimum Inhibitory Concentration test) of Compound (3) [drawing 5] which is an exemplary compound of the present invention, against common oral bacteria, A. viscosus, S. mutans, S. oralis, S. sanguis, and L. casei. Minimum Inhibitory Concentration values are determined generally according to the following method: A series of two-fold dilutions of compound (3) in trypticase soy broth (Catalog No. 211768; Becton Dickinson, Franklin Lakes N.J.) was prepared in a 96 well plate and a constant amount of bacteria was then added to each well. After 18-24 hours of incubation, bacterial growth was measured with a Spectrophotometric Micro-plate Reader (Powerwave 5×, BioTEK, Winooski Vt.) and the MIC values were determined Results are provided in Table 1: […]

S. mutans = test: as above; conditions: Streptococcus mutans, trypticase soy broth, 18-24 hours of incubation
Protocol: as §4

L. casei = test: as above; conditions: Lacticaseibacillus casei, trypticase soy broth, 18-24 hours of incubation
Protocol: as §4

A. viscosus = test: as above; conditions: Actinomyces viscosus, trypticase soy broth, 18-24 hours of incubation
Protocol: as §4

S. oralis = test: as above; conditions: Streptococcus oralis, trypticase soy broth, 18-24 hours of incubation
Protocol: as §4

SMILES | SIKT (% Reduction in viable count in 1 min.) [1] [%] | SIKT (% Reduction in viable count in 1 min.) [2] [%] | IC50 (Prostaglandin E2 (PGE2)) [ppm] | MIC [3] [µg/mL] | MIC [4] [µg/mL] | MIC [5] [µg/mL] | MIC (S. sanguis) [µg/mL] | MIC (S. mutans) [µg/mL] | MIC (L. casei) [µg/mL] | MIC (A. viscosus) [µg/mL] | MIC (S. oralis) [µg/mL]
CCCc1cccc(-c2cccc(CCC)c2O)c1O [Compound (3), [1,1-Biphenyl]-2,2′-diol,3,3′ dipropyl] | 99.55 | 99.99 | 0.25 | 62.5 (≈ 231 µM) | 31.2 (≈ 116 µM) | 62.5 (≈ 231 µM) | 3.9 (≈ 14.4 µM) | 7.8 (≈ 28.8 µM) | 7.8 (≈ 28.8 µM) | 3.9 (≈ 14.4 µM) | 7.8 (≈ 28.8 µM)
C=CCc1ccc(O)c(-c2cc(CC=C)ccc2O)c1 [Magnolol, reference compound] | – | – | 0.40 | – | – | – | – | – | – | – | –
